Results: the NIST ThermoML archive (doi:10.1021/je800110r)

Conditions: 333.15 K, Liquid, Vibrating tube method

CCCCCCCCCC [decane]
Conditions | mass density [kg/m3]
10425 kPa | 708.9
10455 kPa | 709
10482 kPa | 709
10506 kPa | 709.1
10526 kPa | 709
10553 kPa | 709.1
10580 kPa | 709
10603 kPa | 709.1
10630 kPa | 709.2
10657 kPa | 709
10677 kPa | 709.3
10704 kPa | 709.2
10743 kPa | 709.3
10772 kPa | 709.2
10799 kPa | 709.4
10828 kPa | 709.3
10856 kPa | 709.3
10884 kPa | 709.3
10917 kPa | 709.4
10950 kPa | 709.4
10976 kPa | 709.4
11009 kPa | 709.5
11035 kPa | 709.6
11073 kPa | 709.6
11102 kPa | 709.7
11132 kPa | 709.6
11162 kPa | 709.7
11188 kPa | 709.5
11219 kPa | 709.7
11250 kPa | 709.7
11277 kPa | 709.8
11304 kPa | 709.8
11330 kPa | 709.7
11357 kPa | 709.7
11398 kPa | 709.8
11428 kPa | 709.8
11460 kPa | 709.8
11492 kPa | 709.9
11533 kPa | 709.9
11566 kPa | 710
11596 kPa | 710
11635 kPa | 710
11662 kPa | 710
11697 kPa | 710.1
11733 kPa | 710.1
11760 kPa | 710.1
11796 kPa | 710.2
11827 kPa | 710.2
11859 kPa | 710.2
11895 kPa | 710.2
11932 kPa | 710.4
11974 kPa | 710.4
11998 kPa | 710.3
12044 kPa | 710.4
12087 kPa | 710.5
12115 kPa | 710.6
12144 kPa | 710.4
12187 kPa | 710.4
12857 kPa | 711
12881 kPa | 711.2
12919 kPa | 711.2
12952 kPa | 711.1
12983 kPa | 711.3
13020 kPa | 711.3
13053 kPa | 711.2
13085 kPa | 711.3
13153 kPa | 711.4
13172 kPa | 711.5
13195 kPa | 711.4
13213 kPa | 711.4
13239 kPa | 711.4
13261 kPa | 711.4
13279 kPa | 711.4
13300 kPa | 711.5
13315 kPa | 711.4
13337 kPa | 711.4
13353 kPa | 711.6
13598 kPa | 711.7
13618 kPa | 711.8
13633 kPa | 711.7
13652 kPa | 711.8
13667 kPa | 711.7
13682 kPa | 711.8
13695 kPa | 711.7
13715 kPa | 711.7
13728 kPa | 711.9
13740 kPa | 711.9
13756 kPa | 711.8
13775 kPa | 711.9
13790 kPa | 711.9
13804 kPa | 712
13817 kPa | 711.9
13834 kPa | 712
13854 kPa | 712
13867 kPa | 711.9
13887 kPa | 712
13913 kPa | 712.1
13929 kPa | 712.1
13951 kPa | 712
13965 kPa | 712.1
13981 kPa | 712.1
13994 kPa | 712
14010 kPa | 712.1
14027 kPa | 712.1
14048 kPa | 712.3
14066 kPa | 712.2
14089 kPa | 712.2
14106 kPa | 712.1
14128 kPa | 712.2
14140 kPa | 712.1
14154 kPa | 712.2
14172 kPa | 712.3
14186 kPa | 712.3
14205 kPa | 712.3
14217 kPa | 712.3
14240 kPa | 712.4
14902 kPa | 712.8
14923 kPa | 712.9
14943 kPa | 713
14961 kPa | 713.1
15005 kPa | 712.9
15028 kPa | 713
15046 kPa | 712.9
15070 kPa | 713
15086 kPa | 713
15104 kPa | 712.9
15126 kPa | 713
15147 kPa | 713
15166 kPa | 713
15205 kPa | 713.2
15267 kPa | 713.2
15394 kPa | 713.3
15411 kPa | 713.3
15435 kPa | 713.4
15452 kPa | 713.4
15479 kPa | 713.3
15499 kPa | 713.4
15536 kPa | 713.4
15558 kPa | 713.4
15603 kPa | 713.4
15623 kPa | 713.5
15641 kPa | 713.5
15666 kPa | 713.6
15680 kPa | 713.5
15703 kPa | 713.5
15721 kPa | 713.6
15741 kPa | 713.6
15761 kPa | 713.5
15784 kPa | 713.6
15804 kPa | 713.6
15827 kPa | 713.6
15859 kPa | 713.6
15877 kPa | 713.7
15898 kPa | 713.6
15919 kPa | 713.8
15945 kPa | 713.8
15972 kPa | 713.7
15992 kPa | 713.8
16013 kPa | 713.7
16043 kPa | 713.8
16061 kPa | 713.9
16084 kPa | 713.9
16108 kPa | 713.9
16129 kPa | 713.9
16147 kPa | 713.9
16163 kPa | 714.1
16188 kPa | 714
16212 kPa | 713.9
16236 kPa | 714
16258 kPa | 714.1
16288 kPa | 714.1
16313 kPa | 714
16336 kPa | 714
16354 kPa | 714
16383 kPa | 714.1
16417 kPa | 714
16436 kPa | 714.1
16455 kPa | 714.1
16484 kPa | 714.1
16506 kPa | 714.2
16535 kPa | 714.2
16557 kPa | 714.2
16580 kPa | 714.2
16599 kPa | 714.4
16628 kPa | 714.2
16648 kPa | 714.2
16681 kPa | 714.3
16700 kPa | 714.4
16719 kPa | 714.3
16749 kPa | 714.4
16769 kPa | 714.4
16806 kPa | 714.4
16832 kPa | 714.3
16858 kPa | 714.5
16882 kPa | 714.4
16913 kPa | 714.4
16933 kPa | 714.6
16963 kPa | 714.6
16983 kPa | 714.5
17007 kPa | 714.6
17030 kPa | 714.6
17054 kPa | 714.6
17071 kPa | 714.7
17105 kPa | 714.6
17136 kPa | 714.7
17168 kPa | 714.7
17193 kPa | 714.8
17217 kPa | 714.8
17252 kPa | 714.9
17276 kPa | 714.8
17301 kPa | 714.8
17329 kPa | 714.9
17357 kPa | 714.8
17382 kPa | 714.9
17407 kPa | 715
17429 kPa | 714.9
17458 kPa | 715
17484 kPa | 715
17509 kPa | 714.9
17542 kPa | 715.1
17564 kPa | 715
17593 kPa | 715.1
17626 kPa | 715.1
17656 kPa | 715.1
17689 kPa | 715.2
17708 kPa | 715.2
17727 kPa | 715.2
17754 kPa | 715.3
17777 kPa | 715.2
17799 kPa | 715.3
17827 kPa | 715.3
17857 kPa | 715.2
17891 kPa | 715.4
17925 kPa | 715.4
17948 kPa | 715.3
17975 kPa | 715.4
18002 kPa | 715.5
18025 kPa | 715.4
18053 kPa | 715.5
18089 kPa | 715.5
18117 kPa | 715.5
18145 kPa | 715.5
18164 kPa | 715.6
18188 kPa | 715.6
18223 kPa | 715.6
18263 kPa | 715.6
18286 kPa | 715.6
18322 kPa | 715.8
18354 kPa | 715.7
18382 kPa | 715.7
18419 kPa | 715.7
18443 kPa | 715.8
18476 kPa | 715.8
18500 kPa | 715.7
18540 kPa | 715.9
18566 kPa | 716
18594 kPa | 716
18623 kPa | 716
18664 kPa | 716
18744 kPa | 716
18765 kPa | 716
18791 kPa | 716.1
18859 kPa | 716.1
18889 kPa | 716.1
18927 kPa | 716.2
18953 kPa | 716.2
18982 kPa | 716.3
19017 kPa | 716.2
19048 kPa | 716.3
19083 kPa | 716.3
19113 kPa | 716.3
19140 kPa | 716.3
19180 kPa | 716.3
19216 kPa | 716.4
